Data published in patent publication US7309710B2, “Crystals” (Astellas Pharma Inc., priority 2002, dated 2007).

How the values were obtained:
[1] = tested on: Ca2+ release-activated Ca2+ channel (CRACC); experiment: CRACC inhibitory activity (in vitro test as described in patent reference 1); assay type: cell-based
Description: (§1) 4,6-Diemthyl-4′-[3,5-bis(trifluoromethyl)-1H-pyrazol-1-yl]nicotinanilide is excellent in terms of the CRACC inhibitory activity, the inhibition selectivity over VOCC, and the activity of suppressing IL-2 production. […] Therefore, a pharmaceutical product containing the compound is useful as an agent for preventing or treating allergic, inflammatory or autoimmune diseases in which CRACC and IL-2 participates. Herein, the allergic, inflammatory or autoimmune diseases include, for example, bronchial asthma, psoriasis, atopic diseases including atopic dermatitis, inflammatory bowel diseases including Crohn disease, digestive ulcer, nephritis, hepatitis, pancreatitis, collagenosis, rheumatoid arthritis, osteoarthritis, and rejection on transplantation. The usefulness on these diseases can be confirmed at the in vitro tests of the CRACC inhibitory activity and the activity of suppressing IL-2 production as described in the patent reference 1 and at various tests using, for example, antigen-induced airway eosinophilia model as a typical disease model of bronchial asthma, and murine collagen-induced arthritis model. 4,6-Dimethyl-4′-[3,5-bis (trifluoromethyl)-1H-pyrazol-1-yl]nicotinanilide may be produced by the method described in the patent reference 1.

[2] = tested on: voltage-operated Ca2+ channel (VOCC); experiment: Inhibition selectivity for CRACC over VOCC; assay type: cell-based
Description: A pyrazole derivative having a high inhibition selectivity for CRACC over voltage-operated Ca^2+ channel (abbreviated as VOCC hereinafter) involved in intracellular calcium regulation of excitatory cells such as smooth muscle cells and nerve cells and having an inhibitory activity against IL-2 production has been reported (for example, patent reference 1).
4,6-Diemthyl-4′-[3,5-bis(trifluoromethyl)-1H-pyrazol-1-yl]nicotinanilide is excellent in terms of the CRACC inhibitory activity, the inhibition selectivity over VOCC, and the activity of suppressing IL-2 production. […] Therefore, a pharmaceutical product containing the compound is useful as an agent for preventing or treating allergic, inflammatory or autoimmune diseases in which CRACC and IL-2 participates. Herein, the allergic, inflammatory or autoimmune diseases include, for example, bronchial asthma, psoriasis, atopic diseases including atopic dermatitis, inflammatory bowel diseases including Crohn disease, digestive ulcer, nephritis, hepatitis, pancreatitis, collagenosis, rheumatoid arthritis, osteoarthritis, and rejection on transplantation. […]

[3] = tested on: IL-2 production; experiment: Activity of suppressing IL-2 production; assay type: cell-based
Description: as §1

[4] = tested on: TNCB-induced Contact Hypersensitivity; experiment: Suppression of TNCB-induced Contact Hypersensitivity; assay type: in vivo; conditions: test described in patent reference 1
Description: as §1

[5] = tested on: collagen-induced arthritis; experiment: Murine collagen-induced arthritis model; assay type: in vivo; conditions: test described in patent reference 1
Description: as §1

[6] = tested on: antigen-induced airway eosinophilia; experiment: Antigen-induced airway eosinophilia (rat); assay type: in vivo; conditions: test described in patent reference 1
Description: as §1

[7] = Stability test of the crystals (assay value by HPLC, internal standard method); assay type: physicochemical; conditions: for Stability test: assay value by HPLC (internal standard method, peak area): 40° C. under light-resistant; for Stability of the crystal: at 5 to 60° C. for at least three months
Description: Because both the α type and β type crystals are stable at 5 to 60° C. for at least three months and can be highly purified by recrystallization, these crystals may be used as raw materials for producing pharmaceutical products. Particularly, these crystals are preferable as raw materials for producing solid pharmaceutical preparations.
(The values express the assay values determined by an internal standard method on the basis of peak area obtained by HPLC)

Stability test: assay value by HPLC (internal standard method, peak area) ([7]; After 1 month) [%]	Stability test: assay value by HPLC (internal standard method, peak area) ([7]; After 3 months) [%]	Stability of the crystal [7]	Compound	CRACC inhibitory activity [1]	inhibition selectivity over VOCC [2]	activity of suppressing IL-2 production [3]	effect on the suppression of TNCB-induced Contact Hypersensitivity [4]	activity of suppressing the arthritis in murine collagen-induced arthritis model [5]	activity of suppressing of antigen-induced airway eosinophilia [6]
			Cc1cc(C)c(C(=O)Nc2ccc(-n3nc(C(F)(F)F)cc3C(F)(F)F)cc2)cn1 [4,6-dimethyl-4′-[3,5-bis(trifluoromethyl)-1H-pyrazol-1-yl]nicotinanilide]	excellent	excellent	excellent	very good activities	very good activities	very good activities
99.7	100.7	stable	Cc1cc(C)c(C(=O)Nc2ccc(-n3nc(C(F)(F)F)cc3C(F)(F)F)cc2)cn1 [β type crystal, 4,6-dimethyl-4′-[3,5-bis(trifluoromethyl)-1H-pyrazol-1-yl]nicotinanilide]						
100.7	99.2	stable	Cc1cc(C)c(C(=O)Nc2ccc(-n3nc(C(F)(F)F)cc3C(F)(F)F)cc2)cn1 [α type crystal, 4,6-dimethyl-4′-[3,5-bis(trifluoromethyl)-1H-pyrazol-1-yl]nicotinanilide]						
